Measured values reported in PMC11783063, “Design, synthesis, and apoptotic antiproliferative action of new benzimidazole/1,2,3-triazole hybrids as EGFR inhibitors” (Frontiers in Chemistry, 2025).

How the values were obtained:
[1] = tested on: leukemia subpanel of 60 human carcinoma cell lines; set-up: method as in Youssif et al., 2024; conditions: NCI five-dose, ref Youssif et al., 2024; cited from earlier work
[2] = tested on: caspase-3; experiment: Caspase-3 activation assay in MCF-7 cells; assay type: cell-based, human; conditions: vs untreated control
Source text: (§1) Cells experience apoptosis in reaction to specific signaling cues, resulting in significant modifications. […] They decompose vital cellular components, including nuclear proteins, such as DNA repair enzymes and structural proteins within the cytoskeleton, essential for optimal cellular function.
(§2) Supplementary Appendix A provides more details.
Allow all reagents to reach room temperature before use. Gently mix all liquid reagents prior to use. Determine the number of 8-well strips needed for the assay. Insert these in the frame(s) for current use. Add 100 μl of the Standard Diluent Buffer to the zero standard wells. Well(s) reserved for chromogen blank should be left empty. Add 100 μl of standards and controls or diluted samples to the appropriate microtiter wells. The sample dilution chosen should be optimized for each experimental system. Tap gently on the side of plate to mix. Cover wells with plate cover and incubate for 2 hours at room temperature. Thoroughly aspirate or decant solution from wells and discard the liquid, Wash wells 4 times. […] Tap gently on the side of the plate to mix. Cover plate with plate cover and incubate for 1 hour at room temperature. Thoroughly aspirate or decant solution from wells and discard the liquid, Wash wells 4 times. Add 100 μl Anti-Rabbit IgG HRP Working Solution to each well except the chromogen blank(s). Prepare the working dilution as described in Preparing IgG HRP. Cover wells with the plate cover and incubate for 30 minutes at room temperature. Thoroughly aspirate or decant solution from wells and discard the liquid. Wash wells 4 times. Add 100 μl of Stabilized Chromogen to each well. The liquid in the wells will begin to turn blue. Incubate for 30 minutes at room temperature and in the dark. The incubation time for chromogen substrate is often determined by the microtiter plate reader used. […] The O.D. values should be monitored, and the substrate reaction stopped before the O.D. of the positive wells exceeds the limits of the instrument. The O.D. values at 450 nm can only be read after the Stop Solution has been added to each well. […] Add 100 μl of Stop Solution to each well. Tap side of plate gently to mix. The solution in the wells should change from blue to yellow. Read the absorbance of each well at 450 nm having blanked the plate reader against a chromogen blank composed of 100 μl each of Stabilized Chromogen and Stop Solution. Read the plate within 2 hours after adding the Stop Solution. Use a curve fitting software to generate the standard curve. […] Read the concentrations for unknown samples and controls from the standard curve. Multiply value(s) obtained for sample(s) by the appropriate dilution factor to correct for the dilution in step 3.

[3] = tested on: caspase-8; experiment: Caspase-8 activation assay in MCF-7 cells; assay type: cell-based, human
Procedure: as §1, §2
The absorbance of each microwell was read on a spectrophotometer at 450 nm. A standard curve is prepared from 7human Caspase-8 standard dilutions and human Caspase-8 concentration determined.

[4] = tested on: Bax; experiment: Bax activation assay in MCF-7 cells; assay type: cell-based, human
Procedure: (§3) The current study supplied compounds 6i and 10e to breast (MCF-7) cancer cell lines at their respective IC50 values. This led to a notable elevation of pro-apoptotic Bax expression, with a fold increase of 34 for compound 6i and 36 for compound 10e.
(§4) Compounds 6i and 10e were assessed for their ability to activate caspase-3, caspase-8, and Bax, as well as to downregulate the anti-apoptotic protein Bcl2 in the MCF-7 breast cancer cell line ([Abdelbaset et al., 2019]). Supplementary Appendix A provides more details.
Bring all reagents, except the human Bax-α Standard, to room temperature for at least 30 minutes prior to opening. The human Bax-α Standard solution should not be left at room temperature for more than 10 minutes. All standards, controls and samples should be run in duplicate. Refer to the Assay Layout Sheet to determine the number of wells to be used and put any remaining wells with the desiccant back into the pouch and seal the ziploc. Store unused wells at 4 °C. Pipet 100 μL of Assay Buffer into the S0 (0 pg/mL standard) wells. Pipet 100 μL of Standards #1 through #6 into the appropriate wells. Pipet 100 μL of the Samples into the appropriate wells. Tap the plate gently to mix the contents. Seal the plate and incubate at room temperature on a plate shaker for 1 hour at ~500 rpm. Empty the contents of the wells and wash by adding 400 μL of wash solution to every well. Repeat the wash 4 more times for a total of 5 washes. After the final wash, empty or aspirate the wells and firmly tap the plate on a lint free paper towel to remove any remaining wash buffer. Pipet 100 μL of yellow Antibody into each well, except the Blank. Seal the plate and incubate at room temperature on a plate shaker for 1 hour at ~500 rpm. Empty the contents of the wells and wash by adding 400 μL of wash solution to every well. Repeat the wash 4 more times for a total of 5 washes. After the final wash, empty or aspirate the wells and firmly tap the plate on a lint free paper towel to remove any remaining wash buffer. Add 100 μL of blue Conjugate to each well, except the Blank. Seal the plate and incubate at room temperature on a plate shaker for 30 minutes at ~500 rpm. Empty the contents of the wells and wash by adding 400 μL of wash solution to every well. Repeat the wash 4 more times for a total of 5 washes. After the final wash, empty or aspirate the wells and firmly tap the plate on a lint free paper towel to remove any remaining wash buffer. Pipet 100 μL of Substrate Solution into each well. Incubate for 30 minutes at room temperature on a plate shaker at ~500 rpm. Pipet 100 μL Stop Solution to each well. Blank the plate reader against the Blank wells, read the optical density at 450 nm. Calculate the average net Optical Density (OD) bound for each standard and sample by subtracting the average Blank OD from the average OD for each standard and sample. Using linear graph paper, plot the Average Net OD for each standard versus Bax concentration in each standard. Approximate a straight line through the points. The concentration of Bax in the unknowns can be determined by interpolation.

[5] = tested on: Bcl-2; experiment: Bcl-2 inhibition assay in MCF-7 cells; assay type: cell-based, human
Procedure: as §3, §4
Mix all the reagents thoroughly without foaming before use. Wash the microwells twice with approximately 300 μL Wash Buffer per well with thorough aspiration of microwell contents between washes. Take caution not to scratch the surface of the microwells. After the last wash, empty the wells and tap microwell strips on an absorbent pad or paper towel to remove excess Wash Buffer. Use the microwell strips immediately after washing or place upside down on a wet absorbent paper for not longer than 15 minutes. […] Add 100 μL of Sample Diluent in duplicate to all standard wells and to the blank wells. Prepare standard (1:2 dilution) in duplicate ranging from 32 ng/mL to 0.5 ng/mL. Add 100 μL of Sample Diluent, in duplicate, to the blank wells. Add 80 μL of Sample Diluent, in duplicate, to the sample wells. Add 20 μL of each Sample, in duplicate, to the designated wells. Add 50 μL of diluted biotin-conjugate to all wells, including the blank wells. Cover with a plate cover and incubate at room temperature, on a microplate shaker at 100 rpm if available, for 2 hours. Remove plate cover and empty the wells. Wash microwell strips 3 times as described in step 2. Add 100 μL of diluted Streptavidin-HRP to all wells, including the blank wells. Cover with a plate cover and incubate at room temperature, on a microplate shaker at 100 rpm if available, for 1 hour. Remove the plate cover and empty the wells. Wash microwell strips 3 times as described in step 2. Proceed to the next step. Pipette 100 μl of mixed TMB Substrate Solution to all wells, including the blanks. Incubate the microwell strips at room temperature (18° to 25°C) for about 15 minutes, if available on a rotator set at 100 rpm. Avoid direct exposure to intense light. The point, at which the substrate reaction is stopped, is often determined by the ELISA reader. Many ELISA readers record absorbance only up to 2.0 O.D. Therefore, the color development within individual microwells must be watched by the person running the assay and the substrate reaction stopped before positive wells are no longer properly detectable. Stop the enzyme reaction by quickly pipetting 100 μL of Stop Solution into each well, including the blank wells. It is important that the Stop Solution is spread quickly and uniformly throughout the microwells to completely inactivate the enzyme. Results must be read immediately after the Stop Solution is added or within one hour if the microwell strips are stored at 2 - 8°C in the dark. Read the absorbance of each microwell on a spectrophotometer using 450 nm as the primary wavelength.

[6] = biological target: EGFR (Homo sapiens, UniProt P00533); set-up: method as in Ihmaid et al., 2021; conditions: ref Ihmaid et al., 2021; read-out: EGFR inhibition IC50; cited from earlier work
EGFR, sequence (P00533 669-1210): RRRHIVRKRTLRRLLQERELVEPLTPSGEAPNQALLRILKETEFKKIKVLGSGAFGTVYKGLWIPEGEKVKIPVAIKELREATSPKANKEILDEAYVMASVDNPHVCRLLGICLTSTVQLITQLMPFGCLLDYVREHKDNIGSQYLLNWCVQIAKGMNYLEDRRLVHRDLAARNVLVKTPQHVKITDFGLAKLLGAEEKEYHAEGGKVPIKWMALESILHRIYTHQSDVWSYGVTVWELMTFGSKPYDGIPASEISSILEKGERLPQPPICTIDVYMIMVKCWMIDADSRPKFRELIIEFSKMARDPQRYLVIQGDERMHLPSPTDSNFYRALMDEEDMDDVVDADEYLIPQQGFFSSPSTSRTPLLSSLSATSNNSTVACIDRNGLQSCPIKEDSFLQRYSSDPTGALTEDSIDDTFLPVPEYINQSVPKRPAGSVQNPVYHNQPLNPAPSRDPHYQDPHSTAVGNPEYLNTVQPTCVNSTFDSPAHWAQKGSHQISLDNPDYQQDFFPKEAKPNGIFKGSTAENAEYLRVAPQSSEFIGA

O=C(N/N=C/c1ccc([N+](=O)[O-])cc1)c1ccc2[nH]c(-c3ccc(Cl)cc3)nc2c1 [I]
Selectivity ratio towards the leukemia subpanel at the GI50 level [1]: 5.96

CN[C@@H]1C[C@H]2O[C@@](C)([C@@H]1OC)n1c3ccccc3c3c4c(c5c6ccccc6n2c5c31)C(=O)NC4 [Staurosporine, reference compound]
Caspase-3 Fold change [2]: 7 | Caspase-8 Conc ([3]; compound at its IC50 concentration): 1.50 ± 0.10 ng/mL | Caspase-8 Fold change ([3]; vs untreated control): 17 | Bax Conc ([4]; compound at its IC50): 288 ± 2 pg/mL | Bax Fold change ([4]; vs untreated control): 32 | Bcl-2 Conc ([5]; compound at its IC50): 1.20 ng/mL | Bcl-2 Fold reduction ([5]; vs untreated control): 4

Cc1ccc(NC(=O)Cn2cc(CN3C(=O)c4cc(Cl)c(Cl)cc4C3=O)nn2)cc1F [III]
IC50 [6]: 79 nM
